Test results as given in US7893027B2, “Treatment of ocular wounds and ulcers” (The Board of Regents of the University of Oklahoma, priority 2002, dated 2011).

Key:
Assay type in all cases: cell-based, human
CAP37 protein in HCEC = assay: Immunocytochemical detection of CAP37 protein induction in HCEC; details: for Time of maximum CAP37 protein induction: HCEC
Experimental: (§1) For immunocytochemical analysis of HCEC and stromal keratocytes in culture, the cells were cultured on coverslips (CORNING COSTAR, Acton, Mass.) placed within 24-well tissue culture plates (CORNING COSTAR) until they reached 70% confluence and immunostained for CAP37 as described above except for the following changes. Cells were fixed in formol-acetone, pH 7.4 for 60 s at 4° C. (13) and were stained using the mouse anti-human CAP37 antiserum (1:500 dilution).
(§2) To determine if pro-inflammatory cytokines could induce CAP37 in HCEC and keratocytes we treated these cell cultures with TNF-α (0-10 ng/ml, Boehringer-Mannheim, Indianapolis, Ind.) and IL-1β (0-20 ng/ml, ENDOGEN, Woburn, Mass.) for 0-24 hr and assayed the cells immunocytochemically for the presence of CAP37 protein as described above. Untreated cell cultures were included for each test sample. In addition to protein detection, upregulation of CAP37 mRNA in response to TNF-α and IL-1β was measured by RT-PCR as described below.

[1] = system: CAP37 protein in stromal keratocytes; assay: Immunocytochemical detection of CAP37 protein induction in stromal keratocytes
Experimental: as §1, §2

CAP37 mRNA in HCEC = assay: RT-PCR of CAP37 mRNA induction in HCEC
Experimental: as §2
Cultured HCEC were treated with 5 ng/ml TNF-α and 10 ng/ml IL-1β for 0-8 hr at 37° C. Total cellular RNA was isolated from untreated and treated HCEC according to vendor specifications (TRIzol™, Gibco BRL). After reverse-transcription of 5 μg of total RNA by random oligonucleotide priming (hexanucleotide mix, BOEHRINGER-MANNHEIM, GmbH, Germany), the resulting single stranded cDNA was amplified by PCR (PERKIN ELMER 2400 thermocycler, Norwalk, Conn.) using CAP37 specific primers ([…] (SEQ ID NO:9) and […] (SEQ ID NO:10)) designed for a 597 bp internal fragment of HL60-CAP37 (34). The reaction conditions for reverse transcription were 80 units of RNAse inhibitor (SIGMA), 8 μl of 5× strand buffer, 2 μl of random hexanucleotide mix, 1 mM dNTPs (GIBCO BRL), 10 mM DTT (GIBCO BRL), and 400 units of M-MLV RT (GIBCO BRL) in a total volume of […]. The reaction mix was incubated at 37° C. for 50 min followed by incubation at 70° C. for 15 min. The PCR mix (1.5 mM MgCl2, 0.2 mM dNTPs, 1.26 μM of each primer and 1 unit Taq polymerase, GIBCO BRL) was amplified for 30 cycles. Amplified DNA fragments were separated by electrophoresis on a 1% agarose gel and visualized by exposure to UV after ethidium bromide (0.5 μg/ml) staining. To assess the integrity of the cDNA, primers for human β-actin were used.

PECAM-1 (CD31) = assay: Flow cytometry of PECAM-1 expression on HCEC; details: TNF-α control, after 12 hr
Experimental: Flow cytometry was used to assess the upregulation of PECAM-1 (CD31), and the integrin molecules β1 (CD29), β2 (CD18), β3 (CD61), β4 (CD104), α1 (CD49a), α2 (CD49b), α3 (CD49c), α4 (CD 49d), and αv (CD51). Human corneal epithelial cells were cultured as above and treated with CAP37 (0-2000 ng/ml) for 0-72 hr. A corresponding culture was left untreated at each time point. Following treatment with CAP37, cells were detached with 0.25% trypsin in 1 mM EDTA (pH 7.4, FISHER SCIENTIFIC, Pittsburgh, Pa.), washed twice in PBS and fixed with 0.125% paraformaldehyde (J.T. BAKER, Phillipsburg, N.J.) overnight at 4° C. The cells were washed in PBS and then incubated in 0.5% normal goat serum and 0.5% bovine serum albumin (BSA) in PBS for 30 min to block non-specific binding sites. Cells were incubated in the primary antibody (at concentrations described below) at 4° C. for 1 hr followed by the secondary antibody (FITC-goat anti-mouse IgG, PHARMINGEN, San Diego, Calif.) at 0.5 μg/10^6 cells and incubated at 4° C. for 30 min. The isotype control for these studies was FITC-labeled mouse isotype IgG1 (PHARMINGEN). The cells were analyzed by flow cytometry (FACS Calibur, BECTON DICKINSON, San Jose, Calif.). At least ten thousand cells were analyzed for each sample. […]

| Substance | Time of maximum CAP37 protein induction (CAP37 protein in HCEC) [h] | Time point at which expression of CAP37 protein was observed (CAP37 protein in HCEC; HCEC treated with IL-1β) [h] | Induction of CAP37 protein [1] | Initial expression of CAP37 mRNA post stimulation (CAP37 mRNA in HCEC; IL-1β 10 ng/ml) [h] | CAP37 mRNA (CAP37 mRNA in HCEC; IL-1β 10 ng/ml, 6 hr) | Earliest detection of CAP37 protein (CAP37 protein in HCEC; HCEC treated with TNF-α) [min] | Duration of effect on PECAM-1 expression (PECAM-1 (CD31)) | Earliest expression of CAP37 mRNA (CAP37 mRNA in HCEC; TNF-α 5 ng/ml) [min] | Time of maximum CAP37 mRNA levels (CAP37 mRNA in HCEC; TNF-α 5 ng/ml, reduced by 4 hr) |
| --- | --- | --- | --- | --- | --- | --- | --- | --- | --- |
| IL-1β: proinflammatory cytokine used to induce CAP37 | 24 | 4 | showed the induction of CAP37 protein | 1 | can be detected |  |  |  |  |
| TNF-α | 24 |  | showed the induction of CAP37 protein |  |  | 60 | more sustained, lasting until 24 hr | 15 | between 30 min and 2 hr |
